These are literature values, as cited in publication PMC7643960 (PLoS ONE, 2020).

Conditions in all cases: cited from earlier work
The subject of data set [1] is human carbonic anhydrase isoenzyme II. Set-up: method as in PMID 15664816.
The test system of data set [2] is normal human umbilical vein endothelial cells, fibroblasts and keratinocytes.
The next data set has as its system mice.

With `C=C(C)[C@@H]1CC[C@]2(COS(N)(=O)=O)CC[C@]3(C)[C@H](CC[C@@H]4[C@@]5(C)CC[C@H](OS(N)(=O)=O)C(C)(C)[C@@H]5CC[C@]43C)[C@@H]12` [BBS, (3β)-Lup-20(29)-ene-3,28-diol, 3,28-disulfamate], the “inhibition of carbonic anhydrase II” value in data set [1] was “efficient inhibitor”.
In the case of `C=C(C)[C@@H]1CC[C@]2(C(=O)OCC(N)(CO)CO)CC[C@]3(C)[C@H](CC[C@@H]4[C@@]5(C)CC[C@H](OC(C)=O)C(C)(C)[C@@H]5CC[C@]43C)[C@@H]12` [NVX-207, 3-acetyl-betulinic acid-2-amino-3-hydroxy-2-hydroxymethyl-propanoate], in data set [2], the “impact on in vitro survival of normal cells” value is recorded as “little impact”. Further, in the data set with mice, the “side effects after intravenous application” value is reported as “did not lead to any side effects”.
